For one data set, the system named is colorectal tumorigenesis. In words: AOM/DSS-induced colorectal cancer model in conventional C57BL/6 mice. Type of data set: in vivo. The source says:
For each cycle, mice were allowed free access to drinking water supplemented with 2.0% DSS for 5 days, followed by 16 days of regular water. Drinking water was supplemented with antibiotics cocktail (0.2 g/L of ampicillin, neomycin and metronidazole and 0.1 g/L of vancomycin) for two weeks, every other two weeks, till the end of experiment, to deplete the gut microbiota. […] At day 80 for AOM/DSS model and day 84 for APC^min/+ model, mice were harvested. The intestines were longitudinally opened along the mesenteric margin and flushed with ice-cold phosphate-buffered saline (PBS). Solid neoplastic lesions were carefully counted for tumor number and measured for tumor size (average diameter, (major diameter+minor diameter)/2) and tumor load (sum of average diameters of all tumors). The intestinal tissues were fixed in 10% neutral buffered formalin and embedded in paraffin. Sections (4 μm) were stained with hematoxylin and eosin for histological examination by a pathologist (A/Professor Anthony W H Chan) who was blind to the experimental design. The remaining tissues were snap-frozen in liquid nitrogen, and stored at −80° C. until use. All procedures adhered to the guidelines approved by the Animal Experimentation Ethics Committee of the Chinese University of Hong Kong.

A further data set deals with COX-2. In words: COX-2 mRNA in distal colonic tissues by qRT-PCR. Type of data set: in vivo, mice. The note with it: for tissue COX-2 expression: compared to control mice. As to the method:
Total RNA in distal colonic tissues was extracted using TRIzol reagent (Thermo Fisher Scientific). The quality and quantity of RNA were determined by NanoDrop2000 spectrophotometer. Complementary DNA (cDNA) was synthesized from 1000 ng of the extracted RNA by reverse transcription (PrimeScript RT Reagent Kit with gDNA Eraser) (Takara, Japan) and analyzed by qPCR with normalization by GAPDH. The primers used were: […]
(In qPCR the cycle at which signal appears reflects the starting amount.)

The test system of another data set is fecal bacteria. Type of data set: in vitro ADME, mice. The method, then: The levels of aspirin from plasma, gut luminal contents and culture medium was determined by ultra-high-performance liquid chromatography-quadrupole time-of-flight mass spectrometry (UHPLC-Q-TOF/MS). The detection sample was mixed in 5 μL 4-[…] (0.39 mg/mL, internal standard). Aspirin and salicylic acid were extracted twice by 400 μL cold methanol. Supernatants were dried under nitrogen stream and detected by UHPLC (1290 Infinity LC, Agilent, Santa Clara, Calif.) and MS (6550 Q-TOF/MS, Agilent, CA). The primary metabolite of aspirin, salicylic acid, in culture medium was examined by Trinder's method^26. Equal number of fecal bacteria (estimated by optical density (OD) 600) from APC^min/+ mice with and without antibiotic treatment were inoculated into the brain heart infusion (BHI) medium (Thermo Fisher Scientific) containing aspirin (10 mM). After 2-hour co-incubation at 37° C., the level of salicylic acid in medium was measured by Trinder's method^26. Briefly, the supernatant of medium was mixed with a solution containing 40 g ferric nitrate, 40 g mercuric chloride and 120 mL 1N HCL in 1 L ddH2O at 1:5 ratio. Salicylic acid was quantified by absorbance value at 540 nm. The plasma and luminal content levels of salicylic acid were evaluated by UHPLC-Q-TOF/MS. Mouse feces were mixed with cooked meat (CM) medium (Thermo Fisher Scientific). […]

The subject of the next data set is gut microbiota. In words: Shotgun metagenomics of feces from aspirin-treated versus control APCmin/+ mice. Type of data set: in vivo. As to the method: Whole-genome shotgun metagenomic sequencing of fecal samples from mice were performed on Illumina HiSeq 2000 (Illumina, San Diego, Calif.) as previously described^27. […] Mammalian genomes (hg38, felCat8, canFam3, mm10, rn6, susScr3, galGal4 and bosTau8; UCSC Genome Browser) and 6877 bacterial plasmids (NCBI RefSeq database accessed on May 12, 2016), 2116 complete plastomes (NCBI RefSeq database accessed on May 12, 2016) and 6093 UNiVec sequences (NCBI RefSeq database accessed on May 12, 2016), which are potential habitat-/laboratory-associated or extra-chromosomal sequence contaminants, were removed after alignment using Bowtie2 v_2.2.9 with “very-sensitive” default settings. Taxonomy was assigned to metagenomic reads using k-mer-based algorithms implemented in Kraken taxonomic annotation pipeline with each k-mer in a read mapped to the lowest common ancestor of all reference genomes with exact k-mer matches. Each query was thereafter classified to a taxon with the highest total hits of k-mer matched by pruning the general taxonomic trees affiliated with mapped genomes. The final metagenomic read counts were rarified to the sample with the lowest value and further normalized by cumulative sum scaling. In-house fecal metagenomic sequences were examined for the abundance of candidate bacteria identified from mouse fecal samples^27,28.

Setting [1] is: aspirin 400 mg/L drinking water, microbiota-depleted (antibiotics cocktail) AOM/DSS-treated mice, vs no aspirin.
Where [2] appears, read: high-dose aspirin 1200 mg/L, conventional AOM/DSS-treated mice gavaged with L. sphaericus twice/week.
Where [3] appears, read: higher dose aspirin 1200 mg/L in drinking water, microbiota-intact AOM/DSS-treated mice, vs mice without aspirin.
[4] abbreviates: aspirin-treated APCmin/+ mice compared to control.

On to `CC(=O)Oc1ccccc1C(=O)O` [aspirin, acetylsalicylic acid], for which, in the data set with colorectal tumorigenesis (setting [1]), the colorectal tumor load entry was “significant reductions” and the colorectal tumor number result is on record as “significant reductions”. Besides, in the data set on colorectal tumorigenesis (setting [2]), the “preventive effect on tumor load” value is “marginally” and the “preventive effect on tumor number” value is “impaired the preventive effect”. In the data set on colorectal tumorigenesis (setting [3]), the colorectal tumor load entry is on record as “significantly reduced” and the colorectal tumor number result was “significantly reduced”. The “colonic COX-2 mRNA level” value in the data set on COX-2 (AOM/DSS mice with depleted microbiota) is “significantly decreased”. Also, in the data set on COX-2 (AOM/DSS-treated germ-free mice), the COX-2 expression entry was “reductions”. Also, in the data set on COX-2 (APCmin/+ mice with depleted microbiota), the “colonic COX-2 mRNA level” value is listed as “significantly decreased”. The “tissue COX-2 expression” value in the data set on COX-2 (conventional mice with intact microbiota) is reported as “no differences”. Moreover, in the data set with COX-2 (conventionalized germ-free mice), the “tissue COX-2 expression” value is on record as “no differences”. In addition, the “salicylic acid level in the medium (UHPLC-Q-TOF/MS)” value in the data set on fecal bacteria was “not significantly different”. Moreover, the “association between microbial community composition and aspirin treatment (multivariate component analysis)” value in the data set with gut microbiota (antibiotics-naive aspirin-treated APCmin/+ vs control mice) is “significant associations”. Moreover, in the data set with gut microbiota (setting [4]), the “Bifidobacterium and Lactobacillus genera (linear discriminant analysis effect size)” value was “enrichment”; the “Clostridium and Clostridiodes genera” value is reported as “depleted”; the “probiotic species B. pseudolongum, B. breve, B. animalis, L. reuteri, L. gasseri, L. johnsonii” value was “enriched”.
